The source of these data is patent US4298734A, “Diazaheterocyclopurines and triazolopyrimidines” (Mead Johnson & Company, priority 1979, dated 1981).

For data set [1], the system named is methacholine-induced bronchospasm in the rat. The data set is described as follows: Methacholine-induced bronchospasm (pulmonary ventilation pressure) in anesthetized rat. The class given is in vivo. The following applies: intraduodenal, 50% inhibition of bronchospasm. The text has this: Brochodilator activity in vivo (Table XI, column 6) was estimated by determining the dose of test compound required to inhibit methacholine-induced brochospasm in the rat. […] For this test, pulmonary ventilation pressure (PVP) was the parameter measured using anesthetized animals.

The test system of data set [2] is passive cutaneous anaphylaxis reaction (PCA) in the rat. Kind of data set: Passive cutaneous anaphylaxis reaction (PCA) in the rat. The class given is in vivo. The settings on record: oral. The method, then:
Antiallergy activity in terms of ability to inhibit the immediate hypersensitivity reaction was measured by means of the passive cutaneous anaphylaxis reaction (PCA) in the rat (Table XI, column 7). The animals were passively sensitized by the intradermal injection of rat reagenic antiserum at various locations on the shaved back skin and 48 hours later the test drug was administered. This was followed by challenge at a predetermined interval, usually 15 minutes, by intravenous injection of egg albumin and Evans' blue dye. The dermal reaction at the sensitized site was evaluated and scored by measuring the diameter of the spot generated at the sensitized intradermal injection site. The values reported in the table are either ED50 values for the test compound in terms of mg./kg. of body weight administered orally, or percent inhibition of the dose specified in parentheses.

Data set [3] has as its system rats actively sensitized with egg albumin and B. pertussis vaccine. Kind of data set: Allergic bronchospasm in rats actively sensitized with egg albumin. The class given is in vivo. The following applies: Bordetella pertussis; rat, oral, egg albumin challenge, PVP. The method, then:
Antiallergy/bronchodilator studies (Table XI, column 8) were also conducted using rats which were actively sensitized with egg albumin and B. pertussis vaccine as for preparation of the reagenic antisera in the PCA test. Fifteen days following sensitization, the animals were prepared for measurement of PVP as for the methacholine-induced bronchospasm test, and changes in PVP in response to a standardized challenge of egg albumin following treatment with test drug were measured. The values reported in the table are ED50 values in terms of mg./kg. of body weight for the test compound administered orally.

Data set [4] is described as follows: Anti-allergy and bronchodilator action compared with aminophylline.
The nature of data set [5]: Maximum non-toxic dose in mice. The following applies: mouse, in vivo, po; per os in mice. The text has this: Compounds of Formula I and Formula II are useful as bronchodilators, antiallergy agents in the inhibition of the immediate hypersensitivity reaction, as vasodilators, and as inhibitors of the enzyme phosphodiesterase. The invention includes processes for the treatment of mammals requiring bronchodilation, vasodilation, or having allergy with a non-toxic bronchodilator effective, vasodilator effective, or immediate hypersensitivity reaction inhibiting dose of one of these compounds. The compounds may be administered orally, parenterally, topically by inhalation, or rectally. Effective doses range from about 0.03 mg./kg. of body weight up to the maximum non-toxic dose which can be administered without undue side effects. Maximum non-toxic doses can be determined by standard pharmacologic techniques using mice. The value for the substance of Procedure 3 or 4, a preferred compound for anti-asthma use, is about 250 mg./kg. of body weight per os in mice.

Consider `CC1(C)CN2C(=O)c3nc[nH]c3N(Cc3ccc(Cl)cc3)C2=N1` [Procedure 104], for which the median effective dose (ED50) in data set [1] amounted to 6.3 mg/kg; in data set [2], 42.8 mg/kg; in data set [3], 3 mg/kg. Besides, the “anti-allergy and bronchodilator action relative to aminophylline” value in data set [4] was “more potent than aminophylline in anti-allergy and bronchodilator action”.
On to `O=C1c2[nH]cnc2N(Cc2ccc(Cl)cc2)C2=NCCN12` [Procedure 3], for which the values for the ED50 in data set [1], in data set [2] and in data set [3] were 5.2 mg/kg, 33.7 mg/kg and 2.9 mg/kg, respectively. The MTD in data set [5] is ~250 mg/kg.

By ED50 is commonly meant the midpoint of the dose-response relation.
